Test results published in patent US4820723A, “Disubstituted tetrazole leukotriene antagonists and methods for their use thereas” (Eli Lilly and Company, priority 1987, dated 1989).

What was measured:
[1] = molecular target: T1, LTD4 in guinea pig ileum and trachea (Cavia porcellus, UniProt Q2NNR5); assay: cumulative concentration-response curves to LTD4 in guinea pig ileum and trachea (KB by method of Furchgott); conditions: negative log of the dissociation KB, 30 minute incubation, LTD4 agonist
T1 construct: from tissue; host or cells: isolated ileum and trachea of guinea pigs (male Hartley stated for the ileum test)
T1 sequence (Q2NNR5 1-340): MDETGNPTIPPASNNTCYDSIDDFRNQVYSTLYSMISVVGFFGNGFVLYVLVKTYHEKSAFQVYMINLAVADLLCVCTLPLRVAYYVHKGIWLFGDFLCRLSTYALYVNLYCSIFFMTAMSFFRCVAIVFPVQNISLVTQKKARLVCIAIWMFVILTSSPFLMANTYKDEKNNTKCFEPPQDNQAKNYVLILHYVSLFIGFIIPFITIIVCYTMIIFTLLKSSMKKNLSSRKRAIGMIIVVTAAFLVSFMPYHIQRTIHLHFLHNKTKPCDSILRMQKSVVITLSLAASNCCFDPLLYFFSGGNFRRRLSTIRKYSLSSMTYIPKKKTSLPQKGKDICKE
Description: (§1) Male, Hartley guinea pigs weighing 200-450 grams were killed by decapitation. A section of terminal ileum was removed, the lumen cleaned, and the tissue divided into 2.5 cm segments. The ilea were mounted in 10 ml tissue baths containing Krebs-bicarbonate solution of the following composition in mmoles/liter: KCl, 4.6; CaCl2 ·2H2 O, 1.2; KH2 PO4, 1.2; MgSO4 ·7H2 O, 1.2; NaCl, 118.2; NaHCO3, 24.8; and dextrose, 10.0. The bath fluid was maintained at 37° C. and aerated with 95 percent oxygen and 5 percent CO2. In addition, the buffer contained 1×10^-6 M atropine to reduce ileal spontaneous activity. Isometric measurements were made with a Grass FT03C force-displacement transducer and recorded on a Grass polygraph as change in grams of force. A passive force of 0.5 g. was applied to the tissues. After an appropriate equilibration period, single submaximal control responses to pure LTD4 were obtained. Following a five minute exposure of the ileum to an experimental drug, the control concentration of LTD4 was added to the tissue bath. The response of the ileum to LTD4 in the presence of the drug was compared to the response in the absence of the drug. Various degrees of LTD4 antagonism were obtained using 2-4 different concentrations of an experimental compound on a single ileum.
For some of the drugs in this series a more detailed analysis of LTD4 antagonism was made. In these experiments, cumulative concentration-response curves were obtained to LTD4 in guinea pig ileum and trachea. This was followed by a 30 minute incubation with various concentrations of the experimental drug. The concentration response curve to LTD4 was then repeated in the presence of an antagonist. Only one concentration of antagonist was used on a single tissue. KB values were calculated by the method of Furchgott [Ann. N.Y. Acad. Sci., 139, 553 (1967)] using the following equation. [formula]
Dose effect ratio refers to the concentration of agonist required to elicit 50 percent of the maximal response (ED50) in the presence of the antagonist divided by the ED50 in the absence of the antagonist. Calculations were performed with the aid of a computer and a digital plotter. The negative log of the dissociation KB ("pKB ") is given for some of the compounds in the table below.
(§2) Percent inhibition of LTD4 evoked ileal contractions

[2] = tested on: pressor response to leukotriene D4; assay: decrease of LTD4 pressor response in pithed rats; assay type: in vivo, Adult male Sprague-Dawley rats; conditions: Rattus norvegicus, iv, 0.25 h, 15 minutes prior to leukotriene D4 challenge (10 μg/kg, i.v.); dose to decrease pressor response by 50%
Description: A further measure of the final product's activity is their ability to decrease the pressor response in pithed rats that are challenged by LTD4. This activity is measured by the following standard procedure
Adult male Sprague-Dawley rats, weighting approximately 300-500 grams, are anesthetized with pentobarbital sodium (60 mg/kg, i.p.). The trachea is cannulated and the rats are ventilated with room air delivered from a rodent respirator (Harvard, model 680; tidal volume of 1 ml/100 grams body weight, 60 cycles/minute). Rats are pithed by passing a steel rod through the right orbit and down the entire length of the spinal column. The rod is left in position for the duration of the experiment. Pulsatile arterial blood pressure is measured from a cannulated carotid artery using a Stathamtransducer (P231D). Mean arterial blood pressure is calculated as diastolic pressure plus 1/3 pulse pressure. Drug solutions are administered i.v. through a catheter placed in a jugular vein. Arterial blood pressure is recorded on a multichannel oscillograph (Beckman, model R511A).
Groups of pithed rats, usually 4-6/group, are pretreated i.v. with a dose of test compound or vehicle (control experiments) 15 minutes prior to leukotriene D4 challenge (10 μg/kg, i.v.). Usually 3-4 doses of the test compound are evaluated in a given study. Blood pressure responses to leukotriene D4 in control and drug-treated pithed rats are then compared and an ED50 dose of antagonist is estimated. ED50 (95% confidence interval) is the calculated dose of antagonist (mg/kg, i.v.) required to decrease the pressor response to leukotriene D4 by 50%.
The ED50 values of selected final products of Formula I are set forth below in Table 2.

[3] = tested on: LTD4 evoked ileal contractions; assay: LTD4 antagonism: inhibition of LTD4 evoked contractions of isolated guinea pig ileum; parameters: species or system Male, Hartley guinea pigs; conditions: 5 min exposure to drug, 50% inhibition of LTD4 responses, 37° C.
Description: as §1, §2

Compound: CCCc1c(OCCCCc2nnn(Cc3ccc(C(=O)O)c(O)c3)n2)ccc(C(C)=O)c1O [Example 55, 5-[4-(4-Acetyl-3-hydroxyl-2-(n-propyl)phenoxy)-butyl]-2H-tetrahydrazole-2-[4-(methylene)salicylic acid]]
- pKB [1]: 6.89
- ED50 [2]: 22 mg/kg

Compound: CCCc1c(OCCCCc2nnnn2Cc2ccc(C(=O)O)cc2O)ccc(C(C)=O)c1O [Example 56, 5-[4-(4-Acetyl-3-hydroxy-2-(n-propyl)phenoxy)butyl]-1H-tetrazole-1-[(4-methylene)-3-hydroxybenzoic acid]]
- pKB [1]: 6.40

Compound: CCCc1c(OCCCCc2nnn(Cc3ccc(C(=O)O)cc3O)n2)ccc(C(C)=O)c1O [Example 57, 5-[4-(4-Acetyl-3-hydroxy-2-(n-propyl)phenoxy)butyl]-2H-tetrazole-2-[4-(methylene)3-hydroxybenzoic acid]]
- pKB [1]: 7.06
- ED50 [2]: 19.8 mg/kg

Compound: CCCc1c(OCCCCc2nnn(Cc3ccc(C(=O)O)cc3)n2)ccc(C(C)=O)c1O [Example 31, 5-[4-(4-Acetyl-3-hydroxy-2-propylphenoxy)butyl]-2H-tetrazole-2-(α-methylene-p-benzoic acid)]
- -log IC50 [3]: 7.75
- pKB [1]: 7.190
- ED50 [2]: 6.5 mg/kg

Compound: CCCc1c(Oc2ccc(-c3nnn(Cc4ccc(C(=O)O)cc4)n3)cc2)ccc(C(C)=O)c1O [Example 58, 5-[Para-(4-Acetyl-3-hydroxy-2-(n-propyl)phenoxy)phenyl]-2H-tetrazole-2-[para(methylene)benzoic acid]]
- pKB [1]: 7.00

Compound: CCCc1c(OCCCCc2nnn(Cc3ccc(Cc4nn[nH]n4)cc3)n2)ccc(C(C)=O)c1O [Example 54]
- pKB [1]: 7.10
- ED50 [2]: 22.4 mg/kg
